In patent US10508088B2, “Methods using HDAC11 inhibitors” (FORMA Therapeutics, Inc., priority 2016, dated 2019):

What follows are compounds tested against Full length human recombinant HDAC11 (Homo sapiens (Human), UniProt Q96DB2) (assay: Enzymatic HDAC11 assay, electrophoretic mobility shift). Settings: substrate FAM-RHKK(tri-fluor-Ac)-NH2, read-out: HDAC11 IC50 Range.
Full length human recombinant HDAC11, sequence (Q96DB2 whole entry): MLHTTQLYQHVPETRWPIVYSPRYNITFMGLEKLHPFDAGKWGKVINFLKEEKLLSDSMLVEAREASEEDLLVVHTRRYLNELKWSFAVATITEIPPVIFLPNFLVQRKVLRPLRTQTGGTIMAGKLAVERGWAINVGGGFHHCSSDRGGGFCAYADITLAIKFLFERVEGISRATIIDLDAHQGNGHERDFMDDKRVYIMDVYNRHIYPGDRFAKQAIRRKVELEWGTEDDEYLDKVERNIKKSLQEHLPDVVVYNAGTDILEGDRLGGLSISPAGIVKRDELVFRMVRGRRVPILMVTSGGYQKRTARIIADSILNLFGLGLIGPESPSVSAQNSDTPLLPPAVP
Assay type: biochemical
Procedure: The enzymatic HDAC11 assay was performed using electrophoretic mobility shift assay. Full length human recombinant HDAC11 protein was expressed in baculoviral system and purified by affinity chromatography. The enzymatic reactions were assembled in 384 well plates in a total volume of 25 μL in a reaction buffer composing: 100 mM HEPES, pH 7.5, 25 mM KCl, 0.1% bovine serum albumin, 0.01% Triton X-100, 1% DMSO (from compounds) 2 μM of the fluorescently labeled peptide substrate and enzyme. The enzyme was added at a final concentration of 10 nM. The peptide substrate FAM-RHKK(tri-fluor-Ac)-NH2 was used. The compounds were tested at 12 concentrations spaced by 3× dilution intervals. Negative control samples (0%-inhibition in the absence of inhibitor) and positive control samples (100%-inhibition) were assembled in replicates of four in each assay plate. The reactions were incubated at 25° C. and quenched by the addition of 45 μL of termination buffer (100 mM HEPES, pH 7.5, 0.01% Triton X-100, 0.05% SDS).
The terminated assay plates were analyzed on LabChip® 3000 microfluidic electrophoresis instrument (Perkin Elmer/Caliper Life Sciences). The fluorescence intensity of the electrophoretically separated de-acetylated product and substrate peptide was measured. Activity in each sample was determined as the product to sum ratio (PSR):P/(S+P), where P is the peak height of the product peptide and S is the peak height of the substrate peptide. Percent inhibition (Pinh) is determined using the following equation: Pinh=(PSR0%−PSRinh)/(PSR0%−PSR100%)*100,
where PSRinh is the product sum ratio in the presence of inhibitor, PSR0% is the average product sum ration in the absence of inhibitor and PSR100% is the average product sum ratio in 100%-inhibition control samples. The IC50 values of inhibitors were determined by fitting the percent inhibition curves with 4 parameter dose-response model using XLfit 4 software.
For `O=C(NO)c1cccc2c1CC1(CCN(Cc3ccc(Cl)cc3)C1=O)C2` (stereo not drawn) [II-1, 1′-(4-chlorobenzyl)-N-hydroxy-2′-oxo-1,3-dihydrospiro[indene-2,3′-pyrrolidine]-4-carboxamide], the IC50 was less than 500 nM.
Compound `CN1CCC2(Cc3cccc(C(=O)NO)c3C2)C1=O` (stereo not drawn) [II-2, N-hydroxy-1′-methyl-2′-oxo-1,3-dihydrospiro[indene-2,3′-pyrrolidine]-4-carboxamide] has an IC50 greater than 1000 nM.
With `O=C(NO)c1cccc2c1C[C@@]1(CCN(Cc3ccc(Cl)c(C(F)(F)F)c3)C1=O)C2` [II-3, (R)-1′-(4-chloro-3-(trifluoromethyl)benzyl)-N-hydroxy-2′-oxo-1,3-dihydrospiro[indene-2,3′-pyrrolidine]-4-carboxamide] the IC50 was less than 500 nM.
In the case of `O=C(NO)c1cccc2c1CC1(CCN(Cc3ccc(C(F)(F)F)c(F)c3)C1=O)C2` (stereo not drawn) [II-5, 1′-(3-fluoro-4-(trifluoromethyl)benzyl)-N-hydroxy-2′-oxo-1,3-dihydrospiro[indene-2,3′-pyrrolidine]-4-carboxamide], the IC50 is reported as less than 500 nM.
`O=C(NO)c1cccc2c1CC1(CCN(Cc3ccc(C(F)(F)F)cc3)C1=O)C2` (stereo not drawn) [II-6, N-hydroxy-2′-oxo-1′-(4-(trifluoromethyl)benzyl)-1,3-dihydrospiro[indene-2,3′-pyrrolidine]-4-carboxamide] gave an IC50 of less than 500 nM.
With `O=C(NO)c1cccc2c1CC1(CCN(Cc3ccc(F)cc3)C1=O)C2` (stereo not drawn) [II-7, 1′-(4-fluorobenzyl)-N-hydroxy-2′-oxo-1,3-dihydrospiro[indene-2,3′-pyrrolidine]-4-carboxamide] the IC50 was 500 to 1000 nM.
Work on `CS(=O)(=O)c1ccc(CN2CCC3(Cc4cccc(C(=O)NO)c4C3)C2=O)cc1` (stereo not drawn) [II-8, N-hydroxy-1′-(4-(methylsulfonyl)benzyl)-2′-oxo-1,3-dihydrospiro[indene-2,3′-pyrrolidine]-4-carboxamide] yielded an IC50 greater than 1000 nM.
With `O=C(NO)c1cccc2c1CC1(CCN(C3CC3)C1=O)C2` (stereo not drawn) [II-9, 1′-cyclopropyl-N-hydroxy-2′-oxo-1,3-dihydrospiro[indene-2,3′-pyrrolidine]-4-carboxamide] the IC50 was greater than 1000 nM.
Compound `O=C(NO)c1cccc2c1CC1(CCN(CC3CCC3)C1=O)C2` (stereo not drawn) [II-10, 1′-(cyclobutylmethyl)-N-hydroxy-2′-oxo-1,3-dihydrospiro[indene-2,3′-pyrrolidine]-4-carboxamide] has an IC50 greater than 1000 nM.
In the case of `O=C(NO)c1cccc2c1CC1(CCN(c3ccc(C(F)(F)F)cc3)C1=O)C2` (stereo not drawn) [II-11, N-hydroxy-2′-oxo-1′-(4-(trifluoromethyl)phenyl)-1,3-dihydrospiro[indene-2,3′-pyrrolidine]-4-carboxamide], the IC50 is reported as greater than 1000 nM.
In the case of `O=C(NO)c1cccc2c1CC1(CCN(c3cccc(C(F)(F)F)c3)C1=O)C2` (stereo not drawn) [II-12, N-hydroxy-2′-oxo-1′-(3-(trifluoromethyl)phenyl)-1,3-dihydrospiro[indene-2,3′-pyrrolidine]-4-carboxamide], the IC50 is reported as 500 to 1000 nM.
`O=C(NO)c1cccc2c1CC1(CCN(c3ccccc3C(F)(F)F)C1=O)C2` (stereo not drawn) [II-13, N-hydroxy-2′-oxo-1′-(2-(trifluoromethyl)phenyl)-1,3-dihydrospiro[indene-2,3′-pyrrolidine]-4-carboxamide] showed an IC50 greater than 1000 nM.
`O=C(NO)c1cccc2c1CC1(CCN(Cc3ccccc3)C1=O)C2` (stereo not drawn) [II-14, 1′-benzyl-N-hydroxy-2′-oxo-1,3-dihydrospiro[indene-2,3′-pyrrolidine]-4-carboxamide] was tested, and the IC50 was greater than 1000 nM.
Work on `O=C(NO)c1cccc2c1CC1(CCN(CCCc3ccccc3)C1=O)C2` (stereo not drawn) [II-15, N-hydroxy-2′-oxo-1′-(3-phenylpropyl)-1,3-dihydrospiro[indene-2,3′-pyrrolidine]-4-carboxamide] yielded an IC50 greater than 1000 nM.
`O=C(NO)c1cccc2c1CC1(CCN(Cc3ccc(-c4ccccc4)cc3)C1=O)C2` (stereo not drawn) [II-16, 1′-([1,1′-biphenyl]-4-ylmethyl)-N-hydroxy-2′-oxo-1,3-dihydrospiro[indene-2,3′-pyrrolidine]-4-carboxamide] was tested, and the IC50 was less than 500 nM.
Compound `Cc1cccc(CN2CCC3(Cc4cccc(C(=O)NO)c4C3)C2=O)c1` (stereo not drawn) [II-17, N-hydroxy-1′-(3-methylbenzyl)-2′-oxo-1,3-dihydrospiro[indene-2,3′-pyrrolidine]-4-carboxamide] has an IC50 of 500 to 1000 nM.
In the case of `O=C(NO)c1cccc2c1CC1(CCN(Cc3cccc(-c4ccccc4)c3)C1=O)C2` (stereo not drawn) [II-18, 1′-([1,1′-biphenyl]-3-ylmethyl)-N-hydroxy-2′-oxo-1,3-dihydrospiro[indene-2,3′-pyrrolidine]-4-carboxamide], the IC50 is reported as less than 500 nM.
In the case of `COc1ccc(CN2CCC3(Cc4cccc(C(=O)NO)c4C3)C2=O)cc1` (stereo not drawn) [II-19, N-hydroxy-1′-(4-methoxybenzyl)-2′-oxo-1,3-dihydrospiro[indene-2,3′-pyrrolidine]-4-carboxamide], the IC50 is reported as greater than 1000 nM.
`COc1cccc(CN2CCC3(Cc4cccc(C(=O)NO)c4C3)C2=O)c1` (stereo not drawn) [II-20, N-hydroxy-1′-(3-methoxybenzyl)-2′-oxo-1,3-dihydrospiro[indene-2,3′-pyrrolidine]-4-carboxamide] gave an IC50 greater than 1000 nM.
`O=C(NO)c1cccc2c1CC1(CCN(Cc3c(Cl)cccc3Cl)C1=O)C2` (stereo not drawn) [II-21, 1′-(2,6-dichlorobenzyl)-N-hydroxy-2′-oxo-1,3-dihydrospiro[indene-2,3′-pyrrolidine]-4-carboxamide] was tested, and the IC50 was 500 to 1000 nM.
`O=C(NO)c1cccc2c1CC1(CCN(Cc3cccc(Cl)c3Cl)C1=O)C2` (stereo not drawn) [II-22, 1′-(2,3-dichlorobenzyl)-N-hydroxy-2′-oxo-1,3-dihydrospiro[indene-2,3′-pyrrolidine]-4-carboxamide] showed an IC50 of less than 500 nM.
Work on `Cc1ccccc1CN1CCC2(Cc3cccc(C(=O)NO)c3C2)C1=O` (stereo not drawn) [II-23, N-hydroxy-1′-(2-methylbenzyl)-2′-oxo-1,3-dihydrospiro[indene-2,3′-pyrrolidine]-4-carboxamide] yielded an IC50 greater than 1000 nM.
In the case of `O=C(NO)c1cccc2c1CC1(CCN(Cc3cccnc3)C1=O)C2` (stereo not drawn) [II-24, N-hydroxy-2′-oxo-1 ‘-(pyridin-3-ylmethyl)-1,3-dihydrospiro[indene-2,3’-pyrrolidine]-4-carboxamide], the IC50 is reported as greater than 1000 nM.
`O=C(NO)c1cccc2c1CC1(CCN(Cc3ccccc3Cl)C1=O)C2` (stereo not drawn) [II-25, 1′-(2-chlorobenzyl)-N-hydroxy-2′-oxo-1,3-dihydrospiro[indene-2,3′-pyrrolidine]-4-carboxamide] was tested, and the IC50 was greater than 1000 nM.

These compounds were tested against Recombinant N-terminal GST tag full-length human HDAC11 (Homo sapiens (Human), UniProt Q96DB2) (assay: Probe binding HDAC11 assay, time resolved fluorescence (TRF)). Settings: read-out: HDAC11 IC50 Range.
Recombinant N-terminal GST tag full-length human HDAC11, sequence (Q96DB2 whole entry): as above
Compound `O=C(NO)c1cccc(Nc2nc3cc(C(F)(F)F)c(-c4cccc(C(=O)N5CCOCC5)c4)cc3[nH]2)c1` [Example 36-14, N-hydroxy-3-((6-(3-(morpholine-4-carbonyl)phenyl)-5-(trifluoromethyl)-1H-benzo[d]imidazol-2-yl)amino)benzamide] has an IC50 of less than 500 nM.
Work on `O=C(NO)c1cccc(Nc2nc3cc(C(F)(F)F)c(-c4cc(F)ccc4CO)cc3[nH]2)c1` [Example 36-15, 3-((6-(5-fluoro-2-(hydroxymethyl)phenyl)-5-(trifluoromethyl)-1H-benzo[d]imidazol-2-yl)amino)-N-hydroxybenzamide] yielded an IC50 of less than 500 nM.
Work on `COCc1cccc(-c2cc3[nH]c(Nc4cccc(C(=O)NO)c4)nc3cc2C(F)(F)F)c1` [Example 36-16, N-hydroxy-3-((6-(3-(methoxymethyl)phenyl)-5-(trifluoromethyl)-1H-benzo[d]imidazol-2-yl)amino)benzamide] yielded an IC50 of less than 500 nM.
`Cn1ncc2ccc(-c3cc4[nH]c(Nc5cccc(C(=O)NO)c5)nc4cc3C(F)(F)F)cc21` [Example 36-17, N-hydroxy-3-((6-(1-methyl-1H-indazol-6-yl)-5-(trifluoromethyl)-1H-benzo[d]imidazol-2-yl)amino)benzamide] was tested, and the IC50 was less than 500 nM.
With `CN(C)C(=O)c1cccc(-c2cc3[nH]c(Nc4cccc(C(=O)NO)c4)nc3cc2C(F)(F)F)c1` [Example 36-18, 3-(2-((3-(hydroxycarbamoyl)phenyl)amino)-5-(trifluoromethyl)-1H-benzo[d]imidazol-6-yl)-N,N-dimethylbenzamide] the IC50 was less than 500 nM.
With `O=C(NO)c1cccc(Nc2nc3cc(C(F)(F)F)c(-c4ccc(N5CCOCC5)cc4)cc3[nH]2)c1` [Example 36-19, N-hydroxy-3-((6-(4-morpholinophenyl)-5-(trifluoromethyl)-1H-benzo[d]imidazol-2-yl)amino)benzamide] the IC50 was less than 500 nM.
For `O=C(NO)c1cccc(Nc2nc3cc(C(F)(F)F)c(-c4ccoc4)cc3[nH]2)c1` [Example 36-20, 3-((6-(furan-3-yl)-5-(trifluoromethyl)-1H-benzo[d]imidazol-2-yl)amino)-N-hydroxybenzamide], the IC50 was less than 500 nM.
For `O=C(NCc1ccccc1)ONC(=O)c1cccc(Nc2nc3cc(-c4ccccc4)c(C(F)(F)F)cc3[nH]2)c1` [Example 37-1, N-((benzylcarbamoyl)oxy)-3-((5-phenyl-6-(trifluoromethyl)-1H-benzo[d]imidazol-2-yl)amino)benzamide], the IC50 was less than 500 nM.
For `CN(c1cccc(C(=O)NOC(=O)NCc2ccccc2)c1)c1nc2cc(C#N)c(C(F)(F)F)cc2[nH]1` [Example 37-2, N-((benzylcarbamoyl)oxy)-3-((5-cyano-6-(trifluoromethyl)-1H-benzo[d]imidazol-2-yl)(methyl)amino)benzamide], the IC50 was greater than 1000 nM.
